In one data set the test system is Swiss 3T3 fibroblasts. The data set can be described thus: In vitro cytotoxicity assay on contact inhibited 3T3 fibroblasts (MTS). The following applies: for % control (viability of quiescent 3T3 cells): 2 day incubation. The procedure:
A third assay utilized in the present invention involves an in vitro cytotoxicity assay. This assay is used to further characterize the compounds in order to assess toxic activities of compounds on contact inhibited, non-dividing 3T3 fibroblasts. Other toxicity assays may be used.
Contact inhibited Swiss 3T3 fibroblasts are purchased from ATCC. The cells are maintained in 1640 RPMI supplemented with 10% fetal bovine serum (Gibco).
On day of assay, cells are detached from flasks by trypsinization, washed in medium and counted. 100 microliters of 2.5 x 10^4 cells per well are plated into Falcon brand 96 well tissue culture plates and cells incubated at 37°C in presence of 5% CO2 for 2 days or until confluent.
[…] All compound dilutions are assayed in triplicate. […] Cells are returned to the incubator for 2 days.
After 2 day incubation, the 3T3 cells are assayed for viability using an MTS Assay Kit (Promega). Media is added to blank wells for background calculations. After 2 hours incubation in kit reagent, the optical density at 490 nm for each compound and control is determined by plate reader.
Results are expressed as percent cytotoxicity, i.e., (mean OD of compound wells - background OD)/ (mean OD of controls - background).
Note that starting concentration of CsA was 1 µM. […]

In data set [1] the test system is IL-4. The data set can be described thus: Human primary Th2 cells, anti-CD3/anti-CD28 activated, IL-4 ELISA. Format: cell-based. The following applies: human primary Th2 cells, anti-CD3 and anti-CD28 (Table 5). The protocol:
(§1) Briefly, CD4^+CD45RA^+ T cells, isolated from donor peripheral blood mononuclear cells of healthy donors, are educated in the presence of anti-CD3/CD28 antibodies and various growth factors to obtain either a Thl-like or Th2-like phenotypes as determined by the known cytokine profiles of these two cell types.
(§2) Peripheral blood mononuclear cells (PBMC) are prepared from human blood by Ficoll-Hypacque (Pharmacia). The cells are washed two times in Hanks balanced salt solution (HBSS) and counted.
(§3) Naive T cells (CD4^+/CD45RA ) are prepared by negative selection method using following antibodies and Dynabeads: anti-CD8, anti-HLA-DR, (where HLA means human leucocyte antigen) anti-CD14, anti-CD16, anti-CD19, anti-CD45RO antibodies (all from R&D Systems, 1-2 µg/ml) are added to the cells, and the cells are kept on ice for 30 min. The cells are washed two times in HBSS, and goat anti- mouse Ig-beads, (bead:target ratio, 5:1) are added. The cells and beads are slowly rotated at 4°C for 20 min. (following the protocol supplied from Dynal). The supernatant is removed and fresh goat anti-mouse Ig-beads are added to the supernatant, which is slowly rotated at 4°C for 20 min. The cells are counted and phenotypically characterized by flow cytometric analysis.
(§4) CD4^+/CD45RA^+ cells at a density of 10^6/ml in RPMI, is prepared and added to RPMI medium containing 10% Hyclone serum/ glutamine and 1-2 µg/ml anti-CD28 Ab. The cells are split in two aliquots. For Th1 cells: anti-IL-4 Ab (1-2 µg/ml), IFN-γ (1 µg/ml, or 5000 units/ml) are added to the wells. For Th2 cells: IL-4 (100-200 ng/ml), anti-IFN-γ neutralizing Ab (1-2 µg/ml), anti-IL-12 neutralizing Ab (1-2 µg/ml) are added into the wells. […] The cells are transferred to fresh wells and grown in 200 units/ml IL-2 for 2 weeks by feeding them every other day with IL-2 containing medium and splitting the cultures 1:2 or 1:3 as needed. The degree of polarization is determined by intracellular staining of cells with anti-IFN-γ and anti-IL-4 antibodies from Pharmingen, and using flow cytometry from Becton Dickinson (BD), according to manufacturers description. The cells are stimulated with PHA and alloantigens at day 14 and 28 as described below. Eight days after the second allostimulation the cells can be used for compound screening or frozen for future use. For compound testing, large quantities of Th1 and Th2 cells derived from a given donor (NYTh1 and NYTh2) were expanded and frozen as aliquots in liquid nitrogen. The cells are thawed and cultured as and when needed. The thawed cells are stimulated with alloantigen/PHA combination. The cells are used for compound screening after 8-10 days in culture.
(§5) Re-stimulation by allogeneic cells: Human PBMCs, to be used as alloantigens, are isolated from freshly drawn blood by Ficoll separation. […] Cells are counted and diluted to a final concentration of 2 x 10^6/ml in medium containing 10 µg/ml PHA and 200 units/ml IL-2.
(§6) Ninetysix well Falcon tissue culture plates (Fisher Scientific) are coated with 100 microliters per well of 10 µg/ml anti-CD3 (PharMingen) antibody in phosphate buffered saline (PBS) and stored at 4°C one day before the experiment.
(§7) On the day of assay, anti-CD3 antibody coated plates are washed with PBS once to remove all soluble anti-CD3 antibody. […] All compounds and controls are assayed in triplicates.
Background: An ELISA detects its analyte on a solid surface through an enzyme-linked reagent.

Another data set relates to IL-5. Nature of the data set: Human primary Th2 cells, anti-CD3/anti-CD28 activated, IL-5 ELISA. The following applies: human primary Th2 cells, anti-CD3 and anti-CD28 (Table 5). Format: cell-based. The procedure: as §1, §2, §3, §4, §5, §6, §7
A further data set has as its system IL-13. Nature of the data set: Human primary Th2 cells, anti-CD3/anti-CD28 activated, IL-13 ELISA. The class given is cell-based. The settings on record: human primary Th2 cells, anti-CD3 and anti-CD28 (Table 5). The protocol:
as §1, §2, §3, §4, §5, §6, §7

For another data set, the system named is IFN-γ. The data set can be described thus: Human primary Th2 cells, anti-CD3/anti-CD28 activated, IFN-γ ELISA. Format: cell-based. The following applies: human primary Th2 cells, anti-CD3 and anti-CD28 (Table 5). The protocol:
as §1, §2, §3, §4, §5, §6, §7

The test system of a further data set is Human Th2 cells. The data set can be described thus: Human primary Th2 cells, proliferation (viability, MTS assay). The class given is cell-based. The settings on record: human primary Th2 cells, anti-CD3 and anti-CD28 (Table 5); read-out: Prolif. IC50. The protocol: as §1, §2, §3, §4, §5, §6, §7
(In general: Tetrazolium assays rely on reduction of a dye to a coloured formazan, in cell work by metabolically active cells.)

Data set [2] concerns IL-4. The data set can be described thus: In vivo ovalbumin (OVA) mouse model, BALF IL-4. Also noted: species or system mice. The procedure:
This model is designed to determine the ability of a test article to modulate an antigen-induced pulmonary inflammatory cell accumulation in sensitized Balb/c mice from Charles River Laboratories. The mice are given a two week time period from arrival date prior to sensitizations.
On days 0, 7, 14, each animal is injected intraperitoneal (i.p.) with a 0.2 ml Ovalbumin Hydragel solution. Each animal receives 10 µg of Ovalbumin in 0.2 mL of Hydragel, aluminum hydroxide adsorptive gel containing 2% aluminum oxide. […] On day 22, BALF samples are collected from one group of animals and used for cytokine analysis. On day 24, BALF is obtained from a second group of animals and used for differential cell counts.
Test System: Female Babl/cJ mice (Jackson Laboratories), approximately 6-9 weeks old, each weighing approximately 20 to 25 grams, are divided into ten animals per group.
Sensitization Regimen: Mice are sensitized by an intraperitoneal injection of 10 µg ovalbumin (OVA) mixed in 4 mg aluminum hydroxide Al(OH)3 gel suspension in 0.2 ml sterile saline on Days 0, 7 and 14. This suspension is prepared one hour before intraperitoneal injection into each mouse. The animals are ready for OVA challenge on Day 21.
Antigen Challenge: Animals are exposed to aerosolized OVA on day 21 (5% w/v in sterile saline) for 20 minutes. The aerosol is generated by a PARI-Master nebulizer, the outlet of which is connected to a small Plexiglas® chamber containing the animals. Bronchoalveolar lavage is performed on Day 22.
Method of Study Performance: On day 24, 72 hours following aerosol OVA exposure, a separate group of animals are anesthetized with urethane (0.15 - 0.2 gm/kg) and the trachea is exposed and cannulated. Lungs are lavaged with 2 x 0.5 ml Hank's balanced salt solution without Ca^2+ and Mg^2+ (HBSS; Gibco, Grand Island, NY) containing 0.1% EDTA. Lavage fluid is recovered after 30 sec by gentle aspiration and pooled for each animal. Samples are centrifuged at 2000 rpm for 15 minutes at 5°C. After centrifugation, individual supernatants are stored frozen at -80°C. The resulting pellet is resuspended in 0.5 ml of HBSS containing 0.1% EDTA. Total cells and eosinophils are determined using a Technicon Hl and cytoslides, respectively.
Administration of the Test/Control Article: The test article and vehicle dosing preparations are administered once to each anesthetized mouse intranasally using a 200 µl pipette at 30-60 minutes prior to OVA challenge. Each animal receives 50 µl (25 µl/nostril) at each time point. Method of Euthanasia: Urethane overdose at in-life completion.
Compounds administered 30 minutes before aerosol ovalbumin challenge in ova sensitized mice. BALF harvested 24 hours after aerosol challenge. N = 6/group.
Mice (12 animals per group) are sensitized with 0.2 ml of an AlOH3 hydrogel suspension (2% AlOH3) containing 50 µg/ml ovalbumin on days 0, 7 and 14. […] The glucocorticosteroid budesonide (10 mg/kg) is included as a control. All compounds are given in 0.5% methylcellulose/0.2% Tween 80, intranasally (50µl). After the OVA challenge for 24 hours, the mice underwent bronchoalveolar lavage and IL-4 and IL-13 levels in the BALF are determined by ELISA. Another group of mice underwent bronchoalveolar lavage (72 hours after treatment) to determine the number of the eosinophils (*p<0.05, **p<0.01).
Compounds are given (30 mg/kg), intranasally, once, 30 min before OVA challenge unless noted otherwise. BAL fluids are collected 24 hours after OVA challenge and the cytokine levels are measured by standard ELISAs.

For another data set, the system named is eosinophils. Nature of the data set: In vivo ovalbumin (OVA) mouse model, BALF eosinophils. Also noted: species or system mice. The following applies: i.n.

The structures appear in SMILES notation. Structures can show the parent of a compound that is named as a salt. Starred links: 1 amine or outer side, 2 acyl side, 3 side chain; linkers in the order of their positions; H or OH if unused. Positions of bridges follow the written chain, without caps; N, C: chain ends. Non-standard residues stand in square brackets, D forms with d. Residues, ends and D or L forms follow the SMILES beside them. Chains are numbered I, II in the order given. Actinocin(9to1) = Cc1c2oc3c(C)ccc(C(=O)[*:1])c3nc-2c(C(=O)[*:2])c(N)c1=O; NMeV = CN[C@H](C(=O)O)C(C)C; Sar = CNCC(=O)O

Procedure for eosinophils: On days 0, 7, 14, each animal is injected intraperitoneal (i.p.) with a 0.2 ml Ovalbumin Hydragel solution. Each animal receives 10 µg of Ovalbumin in 0.2 mL of Hydragel, aluminum hydroxide adsorptive gel containing 2% aluminum oxide. […] On day 24, BALF is obtained from a second group of animals and used for differential cell counts. […]
Sensitization Regimen: Mice are sensitized by an intraperitoneal injection of 10 µg ovalbumin (OVA) mixed in 4 mg aluminum hydroxide Al(OH)3 gel suspension in 0.2 ml sterile saline on Days 0, 7 and 14. […] The animals are ready for OVA challenge on Day 21. […]
Method of Study Performance: On day 24, 72 hours following aerosol OVA exposure, a separate group of animals are anesthetized with urethane (0.15 - 0.2 gm/kg) and the trachea is exposed and cannulated. […] Total cells and eosinophils are determined using a Technicon Hl and cytoslides, respectively. […]
Compounds are given (30 mg/kg), intranasally, once, 30 min before OVA challenge unless noted otherwise. […] From a parallel set of animals, BAL are collected at 48 hours and the number of eosinophils are determined.

Turning to `Cc1c2oc3c(C)ccc(C(=O)N[C@@H]4C(=O)N[C@H](C(C)C)C(=O)N5CCC[C@H]5C(=O)N(C)CC(=O)N(C)[C@@H](C(C)C)C(=O)O[C@@H]4C)c3nc-2c(C(=O)N[C@@H]2C(=O)N[C@H](C(C)C)C(=O)N3CCC[C@H]3C(=O)N(C)CC(=O)N(C)[C@@H](C(C)C)C(=O)O[C@@H]2C)c(N)c1=O` [Actinomycin D] (I: T[dV]P[Sar][NMeV] / II: T[dV]P[Sar][NMeV]; ester I:1-I:C, II:1-II:C; linker I:N-II:N via Actinocin(9to1)), the “% control (viability of quiescent 3T3 cells)” value in the data set on Swiss 3T3 fibroblasts (0.001 µM) was 79.0 % control; with Swiss 3T3 fibroblasts (0.003 µM), 74.9 % control; with Swiss 3T3 fibroblasts (0.01 µM), 67.2 % control; in the data set on Swiss 3T3 fibroblasts (0.03 µM), 33.9 % control; in the data set with Swiss 3T3 fibroblasts (0.1 µM), 28.2 % control; in the data set on Swiss 3T3 fibroblasts (3 µM), 29.7 % control. Moreover, in the data set with Swiss 3T3 fibroblasts (10 µM), the “% control (viability of quiescent 3T3 cells)” value was 16.8 % control. The “toxic effects on the viability of quiescent 3T3 cells (in words)” value in the data set on Swiss 3T3 fibroblasts (non-dividing 3T3 cells) is recorded as “effected the viability”.

Turning to `O=C(O)c1[nH]c2ccccc2c1Nc1ccncc1` [Example 28 (maleate salt)], the IC50 in the data set with IL-4 [1] was 0.24 µM; in the data set with IL-5, over 10 µM; in the data set with IL-13, about 10 µM; in the data set with IFN-γ it was over 10 µM; with Human Th2 cells it was over 10 µM. The “IL-4 % ctl At 24hours” value in the data set on IL-4 [2] (i.n., 10 mg/kg) turned out to be 57 % ctl; in the data set on IL-4 [2] (i.n., 12 mg/kg) it was 50 % ctl; in the data set on IL-4 [2] (i.n., 30 mg/kg, once, 30 min before OVA challenge) it was 34 % ctl; in the data set on IL-4 [2] (i.p., 30 mg/kg), 43 % ctl. Further, the “Eos % ctl At 72hours” value was 53 % ctl in the data set on eosinophils (10 mg/kg) and 28 % ctl in the data set with eosinophils (30 mg/kg).

Take `O=C(O)c1[nH]c2cc(Cl)cc(Cl)c2c1NS(=O)(=O)c1ccccc1` [Reference Example 91, 3-((Phenylsulfonyl)amino)-4,6-dichloro-1H-indole-2-carboxylic acid]: the half-maximal inhibitory concentration (IC50) with IL-4 [1] is 1 µM; in the data set on IL-5 it was over 10 µM; in the data set on IL-13, over 10 µM; with IFN-γ, over 10 µM; in the data set with Human Th2 cells it was over 10 µM.

`CN(c1c(C(=O)O)[nH]c2cc(Cl)cc(Cl)c12)S(=O)(=O)c1ccccc1` [Reference Example 92, 3-((Phenylsulfonyl)methylamino)-4,6-dichloro-1H-indole-2-carboxylic acid]: the IC50 was 0.45 µM with IL-4 [1]; over 10 µM in the data set with IL-5; over 10 µM in the data set with IL-13; over 10 µM with IFN-γ; over 10 µM with Human Th2 cells.

Usually IC50 stands for the concentration needed to halve the response being measured.
